Among the test systems are HOP-92 NSCLC; NCI/ADR-RES ovarian; OVCAR-4 ovarian; RPMI-8226 leukemia; SF-268 CNS; SF-295 CNS; SF-539 CNS; SN12C renal; U251 CNS; UACC-257 melanoma.
What all share (assay): NCI anticancer screen, dose series, 48 h

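Briefly, cells in 96-well plates were exposed to five compound concentrations for 48 h, and endpoints were estimated by linear interpolation. GI50 is the concentration that inhibits growth by half. TGI marks complete inhibition of growth.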

On to `O=c1nc2oc3ccc4ccccc4c3cc-2s1`, for which the GI50 with HOP-92 NSCLC is 1.62 µM; with NCI/ADR-RES ovarian it was greater than 100 µM; in the test with OVCAR-4 ovarian it was 58.4 µM; in the test with RPMI-8226 leukemia, 50.9 µM; with SF-268 CNS, 7.97 µM; in the test on SF-295 CNS, 2.96 µM. Further, the GI50 is 1.58 µM in the test with SF-539 CNS, 20.4 µM with SN12C renal, 4.4 µM in the test with U251 CNS and greater than 69.9 µM with UACC-257 melanoma. The TGI in the test on HOP-92 NSCLC is greater than 57.8 µM; in the test with NCI/ADR-RES ovarian it was greater than 100 µM; with OVCAR-4 ovarian, greater than 100 µM; with RPMI-8226 leukemia it was greater than 100 µM; in the test on SF-268 CNS, greater than 100 µM; with SF-295 CNS it was greater than 92.7 µM. The TGI in the test on SF-539 CNS, in the test on SN12C renal, in the test on U251 CNS and in the test on UACC-257 melanoma was greater than 100 µM in each case.

Consider `Cc1ccc(S(=O)(=O)Nc2cccc3[nH]c(C(F)(F)F)nc23)cc1`, for which the GI50 is 0.957 µM with HOP-92 NSCLC; 0.412 µM with NCI/ADR-RES ovarian; 1.54 µM in the test with OVCAR-4 ovarian; 0.772 µM with RPMI-8226 leukemia; 1.87 µM with SF-268 CNS; 0.283 µM with SF-295 CNS. In addition, the GI50 was 0.427 µM in the test with SF-539 CNS, 2.72 µM with SN12C renal, 0.466 µM in the test with U251 CNS and 1.32 µM in the test on UACC-257 melanoma. For the same compound, the TGI with HOP-92 NSCLC was determined as 9.32 µM; with NCI/ADR-RES ovarian, 42.9 µM; in the test on OVCAR-4 ovarian it was 80.9 µM; in the test on RPMI-8226 leukemia, 13.7 µM; in the test on SF-268 CNS it was 54.6 µM; with SF-295 CNS it was 1.54 µM. The TGI in the test with SF-539 CNS was 2.06 µM; with SN12C renal, greater than 89.2 µM; in the test on U251 CNS, 21.4 µM; in the test with UACC-257 melanoma, greater than 42 µM.

For the compound `CC(C)(O)CC(=O)NCCn1ccc2ncnc(Nc3ccc(Oc4cccc(C(F)(F)F)c4)c(Cl)c3)c21`, the GI50 is 1.63 µM in the test on HOP-92 NSCLC; 2.58 µM with NCI/ADR-RES ovarian; 5.22 µM in the test on OVCAR-4 ovarian; 4.68 µM in the test on RPMI-8226 leukemia; 3.5 µM in the test with SF-268 CNS; 3.79 µM in the test with SF-295 CNS. Besides, the results for the GI50 with SF-539 CNS, in the test on SN12C renal and in the test with U251 CNS were 4.03 µM, 2 µM and 3.45 µM, respectively. In addition, the TGI in the test on HOP-92 NSCLC, in the test with NCI/ADR-RES ovarian, in the test with OVCAR-4 ovarian, with RPMI-8226 leukemia, with SF-268 CNS and with SF-295 CNS was greater than 10 µM throughout. Further, the TGI in the test on SF-539 CNS, in the test on SN12C renal, in the test with U251 CNS and in the test on UACC-257 melanoma was greater than 10 µM throughout.

Regarding `CN(C)c1ccc2c(c1)OC(N)=C(C#N)C2c1ccc2c(c1)CCO2` (centres undefined), the GI50 is 5.69 µM in the test with HOP-92 NSCLC; less than 0.0279 µM in the test with NCI/ADR-RES ovarian; 0.704 µM in the test with OVCAR-4 ovarian; 0.48 µM in the test on RPMI-8226 leukemia; 0.524 µM in the test on SF-268 CNS; less than 0.0208 µM in the test on SF-295 CNS. Also, the GI50 was 0.118 µM with SF-539 CNS, 0.644 µM in the test on SN12C renal, 0.198 µM with U251 CNS and 27 µM in the test with UACC-257 melanoma. Also, the TGI in the test with HOP-92 NSCLC was 74.3 µM; with NCI/ADR-RES ovarian it was greater than 22.1 µM; in the test on OVCAR-4 ovarian, greater than 100 µM; in the test on RPMI-8226 leukemia, 28.3 µM; in the test on SF-268 CNS, 97.4 µM; in the test on SF-295 CNS, 1.95 µM. Further, the TGI with SF-539 CNS was 0.519 µM; in the test on SN12C renal, 42.5 µM; in the test on U251 CNS, 29.8 µM; with UACC-257 melanoma, greater than 100 µM.

As to `COc1cc([C@H]2OC[C@H]3[C@@H]2CO[C@@H]3c2cc(OC)c3c(c2)OCO3)cc(OC)c1OC`, the TGI with HOP-92 NSCLC, with NCI/ADR-RES ovarian, in the test with OVCAR-4 ovarian, in the test on RPMI-8226 leukemia, with SF-268 CNS and in the test on SF-295 CNS was greater than 100 µM each time. The TGI in the test with SF-539 CNS, with SN12C renal, in the test with U251 CNS and in the test with UACC-257 melanoma was greater than 100 µM in each case.

`Nc1[nH]nc2nc(-c3cccs3)cc(C(F)(F)F)c12`: the GI50 was greater than 14.1 µM with HOP-92 NSCLC; greater than 25 µM in the test with NCI/ADR-RES ovarian; greater than 25 µM in the test on OVCAR-4 ovarian; greater than 25 µM in the test on RPMI-8226 leukemia; greater than 25 µM in the test on SF-268 CNS; greater than 25 µM in the test on SF-295 CNS. In addition, the GI50 with SF-539 CNS is greater than 25 µM; in the test with SN12C renal, greater than 25 µM; in the test with U251 CNS, greater than 23.7 µM; with UACC-257 melanoma it was greater than 25 µM. The TGI in the test on HOP-92 NSCLC, with NCI/ADR-RES ovarian, in the test on OVCAR-4 ovarian, with RPMI-8226 leukemia, in the test with SF-268 CNS and in the test with SF-295 CNS was greater than 25 µM each time. The TGI with SF-539 CNS, in the test on SN12C renal, in the test on U251 CNS and with UACC-257 melanoma was greater than 25 µM throughout.

The values above are taken from PubChem BioAssay (NCI).
